Columns and labels:
[1] = tested on: bicistronic HCV replicon (replicon RNA, GenBank Accession No. AJ242654); assay: HCV Replicon Assay; assay type: cell-based; settings: Hepatitis C virus, 72 h, read-out: Replicon IC50

Row | Structure (SMILES) | IC50 [1] [nM] | melting point [°C]
1 | Cc1ccc2c(c1)c(C#N)c(-c1ccc(S(=O)(=O)N[C@@H](C)C(F)(F)F)cn1)n2-c1ncc(F)cn1 [compound 948, 6-[3-cyano-1-(5-fluoropyrimidin-2-yl)-5-methyl-1H-indol-2-yl]-N-[(2S)-1,1,1-trifluoropropan-2-yl]pyridine-3-sulfonamide] | < 500 | 202 to 207
2 | CC(=O)c1sccc1-n1c(-c2ccc(S(=O)(=O)N[C@@H](C)C(F)(F)F)cn2)c(C#N)c2cc(F)c(C)cc21 [compound 1055, 6-[1-(2-acetylthiophen-3-yl)-3-cyano-5-fluoro-6-methyl-1H-indol-2-yl]-N-[(2S)-1,1,1-trifluoropropan-2-yl]pyridine-3-sulfonamide] | 500 to 2000 | 208.7 to 212.4
3 | C[C@H](NS(=O)(=O)c1ccc(-c2c(C(N)=O)c3cc(Cl)ccc3n2C2CCC2)nc1)C(F)(F)F [compound 996, 5-chloro-1-cyclobutyl-2-(5-{[(2S)-1,1,1-trifluoropropan-2-yl]sulfamoyl}pyridin-2-yl)-1H-indole-3-carboxamide] | < 500 | 244 to 245
4 | C[C@@H](NS(=O)(=O)c1ccc(-c2c(C#N)c3ccc(F)cc3n2C2CCCC2)nc1)C(F)(F)F [compound 218, 6-(3-cyano-1-cyclopentyl-6-fluoro-1H-indol-2-yl)-N-[(2R)-1,1,1-trifluoropropan-2-yl]pyridine-3-sulfonamide] | < 500 | 141 to 144
5 | C[C@H](NS(=O)(=O)c1ccc(-c2c(C(N)=O)c3cc(F)ccc3n2C2CCC2)nc1)C(F)(F)F [compound 997, 1-cyclobutyl-5-fluoro-2-(5-{[(2S)-1,1,1-trifluoropropan-2-yl]sulfamoyl}pyridin-2-yl)-1H-indole-3-carboxamide] | < 500 | 224 to 227
6 | CCc1cc2c(cc1F)c(C#N)c(-c1ccc(S(=O)(=O)NCC3CCC3)cn1)n2-c1ncccn1 [compound 953, 6-[3-cyano-6-ethyl-5-fluoro-1-(pyrimidin-2-yl)-1H-indol-2-yl]-N-(cyclobutylmethyl)pyridine-3-sulfonamide] | < 500 | 207 to 214
7 | CC(C)n1c(-c2ccc(S(=O)(=O)N[C@@H](C)C(F)(F)F)cn2)c(C#N)c2cc(F)c(OC(F)F)cc21 [compound 936, 6-[3-cyano-6-(difluoromethoxy)-5-fluoro-1-(propan-2-yl)-1H-indol-2-yl]-N-[(2S)-1,1,1-trifluoropropan-2-yl]pyridine-3-sulfonamide] | < 500 | 184 to 188
8 | Cc1cc2c(cc1O)c(C(N)=O)c(-c1ccc(S(=O)(=O)N[C@@H](C)C(F)(F)F)cn1)n2C1CCC1 [compound 833, 1-cyclobutyl-5-hydroxy-6-methyl-2-(5-{[(2S)-1,1,1-trifluoropropan-2-yl]sulfamoyl}pyridin-2-yl)-1H-indole-3-carboxamide] | 500 to 2000 | 256 to 258
9 | Cc1cc2c(C#N)c(-c3ccc(S(=O)(=O)N[C@@H](C)C(F)(F)F)cn3)n(-c3ccccn3)c2cc1F [compound 917, 6-[3-cyano-6-fluoro-5-methyl-1-(pyridin-2-yl)-1H-indol-2-yl]-N-[(2S)-1,1,1-trifluoropropan-2-yl]pyridine-3-sulfonamide] | < 500 | 175 to 180
10 | Cc1cc2c(cc1F)c(C#N)c(-c1ccc(S(=O)(=O)N[C@@H](C)C(F)(F)F)cn1)n2-c1cnccn1 [compound 817, 6-[3-cyano-5-fluoro-6-methyl-1-(pyrazin-2-yl)-1H-indol-2-yl]-N-[(2S)-1,1,1-trifluoropropan-2-yl]pyridine-3-sulfonamide] | < 500 | 220 to 223
11 | CC(C)(C)NS(=O)(=O)c1ccc(-c2c(C#N)c3ccc(OC(F)F)cc3n2-c2ccccc2)nc1 [compound 624, N-tert-butyl-6-[3-cyano-6-(difluoromethoxy)-1-phenyl-1H-indol-2-yl]pyridine-3-sulfonamide] | < 500 | 216 to 218
12 | CC(=O)c1cc2c(cc1F)c(C#N)c(-c1ccc(S(=O)(=O)N[C@@H](C)C(F)(F)F)cn1)n2-c1ncccn1 [compound 907, 6-[6-acetyl-3-cyano-5-fluoro-1-(pyrimidin-2-yl)-1H-indol-2-yl]-N-[(2S)-1,1,1-trifluoropropan-2-yl]pyridine-3-sulfonamide] | < 500 | 220 to 221
13 | C[C@@H](NS(=O)(=O)c1ccc(-c2c(C#N)c3ccc(OC(F)(F)F)cc3n2C2CCC2)nc1)C(F)(F)F [compound 191, 6-[3-cyano-1-cyclobutyl-6-(trifluoromethoxy)-1H-indol-2-yl]-N-[(2R)-1,1,1-trifluoropropan-2-yl]pyridine-3-sulfonamide] | 500 to 2000 | 171 to 177
14 | Cc1ccc2c(c1)c(C#N)c(-c1ncc(S(=O)(=O)N[C@@H](C)C(F)(F)F)cn1)n2CC1CC1 [compound 389, 2-[3-cyano-1-(cyclopropylmethyl)-5-methyl-1H-indol-2-yl]-N-[(2S)-1,1,1-trifluoropropan-2-yl]pyrimidine-5-sulfonamide] | 500 to 2000 | 220 to 223
15 | Cc1cc(F)c2c(C#N)c(-c3ccc(S(=O)(=O)NC4(C(F)(F)F)CC4)cn3)n(C3CCC3)c2c1 [compound 629, 6-(3-cyano-1-cyclobutyl-4-fluoro-6-methyl-1H-indol-2-yl)-N-[1-(trifluoromethyl)cyclopropyl]pyridine-3-sulfonamide] | 2000 to 5000 | 241 to 246
16 | Cc1cc2c(cc1F)c(C(N)=O)c(-c1ccc(S(=O)(=O)N[C@@H](C)C(F)(F)F)cn1)n2-c1ncccc1F [compound 902, 5-fluoro-1-(3-fluoropyridin-2-yl)-6-methyl-2-(5-{[(2S)-1,1,1-trifluoropropan-2-yl]sulfamoyl}pyridin-2-yl)-1H-indole-3-carboxamide] | 500 to 2000 | 130 to 138
17 | CCc1cc2c(cc1F)c(C(N)=O)c(-c1ccc(S(=O)(=O)N[C@@H](C)C(F)(F)F)cn1)n2-c1ccc(F)cn1 [compound 981, 6-ethyl-5-fluoro-1-(5-fluoropyridin-2-yl)-2-(5-{[(2S)-1,1,1-trifluoropropan-2-yl]sulfamoyl}pyridin-2-yl)-1H-indole-3-carboxamide] | < 500 | 200 to 204
18 | N#Cc1c(-c2ncc(S(=O)(=O)NC(CF)CF)cn2)n(C2CCCC2)c2cc(Cl)ccc12 [compound 157, 2-(6-chloro-3-cyano-1-cyclopentyl-1H-indol-2-yl)-N-(1,3-difluoropropan-2-yl)pyrimidine-5-sulfonamide] | < 500 | 233 to 238
19 | C[C@H](NS(=O)(=O)c1ccc(-c2c(C#N)c3cc(OC(F)(F)F)ccc3n2-c2cnccn2)nc1)C(F)(F)F [compound 898, 6-[3-cyano-1-(pyrazin-2-yl)-5-(trifluoromethoxy)-1H-indol-2-yl]-N-[(2S)-1,1,1-trifluoropropan-2-yl]pyridine-3-sulfonamide] | 500 to 2000 | 191 to 195
20 | Cc1cc2c(cc1F)c(C#N)c(-c1ccc(S(=O)(=O)N[C@@H](C)C(F)(F)F)cn1)n2-c1ncc(CO)s1 [compound 984, 6-{3-cyano-5-fluoro-1-[5-(hydroxymethyl)-1,3-thiazol-2-yl]-6-methyl-1H-indol-2-yl}-N-[(2S)-1,1,1-trifluoropropan-2-yl]pyridine-3-sulfonamide] | < 500 | 180 to 185
21 | N#Cc1c(-c2ccc(S(=O)(=O)NC(CF)CF)cn2)n(C2CCCC2)c2ccc(OC(F)F)cc12 [compound 33, 6-[3-cyano-1-cyclopentyl-5-(difluoromethoxy)-1H-indol-2-yl]-N-(1,3-difluoropropan-2-yl)pyridine-3-sulfonamide] | < 500 | 172 to 175
22 | Cc1cc2c(cc1F)c(C#N)c(-c1ccc(S(=O)(=O)N[C@@H](C)C(F)(F)F)c(C)n1)n2C1CCCC1 [compound 868, 6-(3-cyano-1-cyclopentyl-5-fluoro-6-methyl-1H-indol-2-yl)-2-methyl-N-[(2S)-1,1,1-trifluoropropan-2-yl]pyridine-3-sulfonamide] | < 500 | 206 to 211
23 | Cc1ccc2c(C#N)c(-c3ccc(S(=O)(=O)NC(CF)CF)cn3)n(C3CCCC3)c2c1 [compound 44, 6-(3-cyano-1-cyclopentyl-6-methyl-1H-indol-2-yl)-N-(1,3-difluoropropan-2-yl)pyridine-3-sulfonamide] | < 500 | 144 to 145
24 | CC(NS(=O)(=O)c1cnc(-c2c(C#N)c3ccc(OC(F)F)cc3n2C2CCC2)nc1)C(F)(F)F (stereo not drawn) [compound 128, 2-[3-cyano-1-cyclobutyl-6-(difluoromethoxy)-1H-indol-2-yl]-N-(1,1,1-trifluoropropan-2-yl)pyrimidine-5-sulfonamide] | < 500 | 227 to 229
25 | C[C@H](NS(=O)(=O)c1cnc(-c2c(C#N)c3ccc(F)cc3n2C2CCCCC2)nc1)C1CC1 [compound 499, 2-(3-cyano-1-cyclohexyl-6-fluoro-1H-indol-2-yl)-N-[(1S)-1-cyclopropylethyl]pyrimidine-5-sulfonamide] | < 500 | 169 to 170
26 | C[C@H](NS(=O)(=O)c1ccc(-c2c(C#N)c3cc(F)ccc3n2C2CCCCC2)nc1)C1CC1 [compound 250, 6-(3-cyano-1-cyclohexyl-5-fluoro-1H-indol-2-yl)-N-[(1S)-1-cyclopropylethyl]pyridine-3-sulfonamide] | < 500 | 161 to 163
27 | Cc1cc2c(cc1F)c(C#N)c(-c1ccc(S(=O)(=O)N[C@@H](C)C(F)(F)F)cn1)n2-c1ccc(S(N)(=O)=O)s1 [compound 1034, 6-[3-cyano-5-fluoro-6-methyl-1-(5-sulfamoylthiophen-2-yl)-1H-indol-2-yl]-N-[(2S)-1,1,1-trifluoropropan-2-yl]pyridine-3-sulfonamide] | 500 to 2000 | 131.6 to 137.7

Reference: patent publication US8735414B2 (priority 2009, dated 2014)
